Values of other authors, collected in patent US5854247A, “Piperazine, piperidine and tetrahydropyridine derivatives useful as 5-HT1 recepter agonists” (Merck Sharp & Dohme Ltd., priority 1994, dated 1998).

Conditions: humans, therapeutic doses

Compound: CNS(=O)(=O)Cc1ccc2[nH]cc(CCN(C)C)c2c1 [sumatriptan]
- adverse cardiovascular events: certain adverse cardiovascular events
